Results taken from patent publication US20070155782A1, “Nk-1 receptor antagonists anesthesia recovery” (priority 2004, published 2007).
Where “and” joins values, the source holds several entries; their conditions need not be identical. Identical values can stand only once.

How the values were obtained:
geriatric beagles = experiment: Experiment B: recovery from general anesthesia in beagle dogs, 0.5 mg/kg compound of Formula Ia; type: in vivo
Method: (§1) The patients utilized in the study were maintained in standard facilities with appropriate heating and ventilation. All dogs were placed under general anesthesia. The duration of anesthesia, time to extubation and time to sternal recumbency were recorded. Also noted were behaviors indicative of dysphoria such as vocalization and purposeless movement. A visual analog scale (“VAS”) was used to score the “quality” of the entire recovery period.
(§2) As used herein, the term “duration of anesthesia” is the time in minutes elapsed between intubation and cessation of anesthetic gases.
(§3) As used herein, the term “time to extubation” is the time in minutes elapsed between cessation of anesthetic gases and the need for removal of the endotracheal tube due to spontaneous swallowing.
(§4) As used herein, the term “time to Sternal Recumbency” is the time in minutes elapsed between cessation of anesthetic gases and the time the dog could physically place and maintain itself in sternal recumbency.
(§5) Evaluation of Recovery Period. A visual analog scale (“VAS”) was used to score the “quality” of the recovery period (0=smooth recovery, 10=rough recovery). Factors considered included, but were not limited to, vocalization, purposeless movement as well as the subjective degree of dysphoria experienced by the dog. The study director, who was blinded to treatment assignments, assigned recovery scores.
(§6) Statistical Analysis. Data from two trials conducted according to the above procedure were combined for analysis purposes. The data in the following Tables and Figures are mean±standard deviation. Duration of anesthesia, time to extubation and time to sternal recumbency data were analyzed using a paired t-test for means in Excel. Recovery VAS data were analyzed using SAS Statistical Software.
Fifteen experimental geriatric beagles, weighing 9-16 kilograms and undergoing anesthesia for dental prophylaxis, were used in this study. All dogs were fasted overnight prior to anesthesia. Experimental dogs were subcutaneously administered 0.5 mg/kg compound of Formula Ia at the time of pre-anesthetic medication. Control dogs received no treatment in addition to routine pre-anesthesia medications. The duration of anesthesia, time to extubation and time to sternal recumbency were recorded.
Preparation of 0.5 mg/kg compound of Formula Ia dose: Formulations were prepared by dissolving the compound of Formula Ia (10 mg/mL) and SBE-CD (10%) in distilled water to form a solution. The solution was sonicated to facilitate complete dissolution and filtered through a 0.22 μm Millipore syringe top filter prior to injection.
Administration of Dose: Solutions of compound of Formula Ia (0.5 mg/kg) were administered by subcutaneous injection.
Anesthetic Protocol: General anesthesia was induced and maintained using the following protocol:
(1) Preanesthetic administration: the Experimental patients were treated with subcutaneous administration of a dose of compound of Formula Ia, as prepared above. Both experimental and control patients were administered glycopyrrolate (0.01 mg/kg SC), butorphanol (0.1 mg/kg SC) and penicillin (30,000 units/kg SC)
(2) During the induction period, the patients were administered intravenous methohexital (8 mg/kg IV).
(3) The patients were then maintained with inhalant isoflurane at concentrations ranging from 0.5 to 3%.
The patients were monitored continuously during the anesthetic and recovery periods.

mature mongrel dogs = experiment: Experiment A: anesthetic recovery in dogs, 1.0 mg/kg compound of Formula Ia vs saline control; type: in vivo
Method: as §1, §2, §3, §4, §5, §6
Experimental mature mongrel dogs, both male and female, weighing about 16-26 kilograms, were subcutaneously administered 1.0 mg/kg compound of Formula Ia one hour prior to preanesthetic administration. Control dogs were subcutaneously administered an equivalent volume of saline solution one hour prior to preanesthetic administration. The duration of anesthesia, time to extubation and time to sternal recumbency were recorded. The patients were monitored continuously during the anesthetic and recovery periods.
Preparation of 1.0 mg/kg compound of Formula Ia dose: Formulations were prepared by dissolving the compound of Formula Ia (10 mg/mL) and SBE-CD (10%) in distilled water to form a solution. The solution was sonicated to facilitate complete dissolution and filtered through a 0.22 μm Millipore syringe top filter prior to injection.
Administration of Dose: Solutions of compound of Formula Ia (1.0 mg/kg) or saline placebo (0.1 mL/kg) were administered by subcutaneous injection (“SC”).
Anesthetic Protocol: General anesthesia was induced using the following protocol: (1) One hour prior to preanesthetic administration, the patients were treated with subcutaneous administration of either a dose of compound of Formula Ia, as prepared above, or the saline control (0.1 mL/kg).
(2) Thirty (30) minutes prior to induction (preanesthetic), the patients were administered glycopyrrolate (0.01 mg/kg SC) and butorphanol (0.1 mg/kg SC).
(3) During the induction period, the patients were administered intravenous methohexital (8 mg/kg IV).
(4) The patients were then maintained with inhaled isoflurane at concentrations ranging from 0.5 to 3%.

[1] = 0.5 mg/kg SC at time of pre-anesthetic medication, beagle dogs
[2] = 1 mg/kg SC one hour prior to preanesthetic, individual dogs
[3] = 1 mg/kg SC, Mean ± SD of 12 dogs

For `COc1ccc(C(C)(C)C)cc1CN[C@H]1C2CCN(CC2)[C@H]1C(c1ccccc1)c1ccccc1` [Compound of Formula Ia, (2S,3S)-2-benzhydryl-N-(5-tert-butyl-2-methoxybenzyl)quinuclidin-3-amine], the “Time to extubation, experimental vs control group” value (geriatric beagles; 0.5 mg/kg SC) was “no statistical difference”, the “Time to sternal recumbency, experimental vs control group” value (geriatric beagles; 0.5 mg/kg SC) was “no statistical difference” and the “Visual analog score for smoothness of recovery period, experimental vs control group” value (geriatric beagles; 0.5 mg/kg SC) was “no statistical difference”. For the same molecule, the “Time to Extubation Mean ± SD” value (geriatric beagles; [1]) was 5.00 ± 4.47 min, the “Time to Sternal Recumbency Mean ± SD” value (geriatric beagles; [1]) was 10.86 ± 10.67 min and the “Subjective appearance during the recovery period vs control dogs” value (geriatric beagles; 0.5 mg/kg SC during the preoperative period) was “tended to look less anxious”. For the same molecule, the “Recovery Score Mean ± SD” value (geriatric beagles; 0.5 mg/kg SC, VAS 0=smooth, 10=rough, beagle dogs) was 3.46 ± 1.54 cm, the “Treated dogs that received visual analog scores of less than 5 cm” value (geriatric beagles; 0.5 mg/kg SC, control dogs 4 out of 8) was 7 out of 7 and the “Time to extubation compared with saline group” value (mature mongrel dogs; 1 mg/kg SC) was “similar”. For the same molecule, the “Time to sternal recumbency compared with saline group” value (mature mongrel dogs; 1 mg/kg SC) was “similar”, the “Time to Extubation” value (mature mongrel dogs; [2]) was 2 min (4×) and 1 min (2×) and 3 min and 5 min (3×) and 4 min (2×) and the “Time to Sternal Recumbency” value (mature mongrel dogs; [2]) was 4 min and 3 min (4×) and 6 min (2×) and 1 min and 11 min and 9 min (2×) and 7 min. The “Time to Extubation” value (mature mongrel dogs; [3]) was 3 ± 2 min, the “Time to Sternal Recumbency” value (mature mongrel dogs; [3]) was 5 ± 3 min and the “Recovery Quality” value (mature mongrel dogs; 1 mg/kg SC, VAS 0=smooth recovery, 10=rough recovery, individual dogs) was 7.1 cm and 1.4 cm and 2.1 cm and 0.7 cm and 0.9 cm and 3.9 cm and 0.2 cm and 1.1 cm and 1.8 cm and 1.9 cm and 4.7 cm and 2.4 cm. For the same molecule, the “Recovery Quality” value (mature mongrel dogs; 1 mg/kg SC, VAS 0=smooth, 10=rough, Mean ± SD of 12 dogs, p=0.02 vs saline) was 2.3 ± 2 cm, the “Recovery scores compared with saline” value (mature mongrel dogs; 1 mg/kg SC, p=0.02) was “significantly lower recovery scores” and the “Recovery VAS scores lower than saline controls” value (mature mongrel dogs; 1 mg/kg SC, vs saline controls) was 43.9%.
